From patent US10087436B2, “Electrophysiologically mature cardiomyocytes and methods for making same” (The Regents of the University of California, priority 2014, dated 2018)

System: Ad-Kir2.1-silenced ventricular hESC-CMs
Assay: Addition of the IK1 blocker Ba2+ to Ad-Kir2.1-silenced ventricular hESC-CMs (patch-clamp)
Type: cell-based, human
Conditions: 200 μM Ba2+
Method: HESC- and hiPSC-CMs were dissociated into single cells with 1 mg/ml collagenase II and plated on 0.1% gelatin-coated glass coverslips. Electrophysiological experiments were performed using whole-cell patch-clamp technique with an Axopatch 200B amplifier and the pClamp9.2 software (Axon Instruments Inc., Foster City, Calif.). Pipette solution was consisted of (mM): 110 K^+ aspartate, 20 KCl, 1 MgCl2, 0.1 Na-GTP, 5 Mg-ATP, 5 Na2-phospocreatine, 1 EGTA and 10 HEPES, with pH of 7.3. The external Tyrode's solution consisted of (mM): 140 NaCl, 5 KCl, 1 CaCl2, 1 MgCl2, 10 glucose, and 10 HEPES with pH of 7.4. Voltage- and current-clamp recordings were performed at 37° C. within 24 to 48 hours after adenovirus transduction. ESC-CMs were categorized into pacemaker, atrial or ventricular phenotypes based on the maximum diastolic potential (MDP), maximum rate of rise of the AP and AP duration (APD). […] Atrial cells with a triangular AP profile have a faster rate of rise than pacemaker cells, more hyperpolarized MDP or resting membrane potential (RMP), and intermediate APD. […] Different protocols as given in insets were employed to elicit the corresponding currents. […] All blockers were purchased from Sigma.

[Ba+2] [Ba^2+]
firing phenotype upon addition of Ba2+: spontaneously fired APs
